Results published in patent US10188636B2 (Cipla (UK) Limited, priority 2015, dated 2019).

How the values were obtained:
[1] = system: primary rat mixed cortical cultures; experiment: Aβ1-42-induced cell death (LDH release) in primary mixed cortical cultures; format: cell-based; details: 37° C., 5% CO2, 72 hours, varied concentrations, FIG. 1
Procedure: Mixed cortical cultures are prepared from E18 Wistar rat embryos. The cortices are dissected out and tissue cut into small pieces. The cells are separated by 15-min incubation with DNase and papain. The cells are collected by centrifugation (1500 rpm, 5 min). […] After 3-4 h, the medium is changed to MEM (2 g/L glucose) supplemented with 2 mM glutamine, 10 μg/mL gentamicin, 5% HS-HI. After three days in vitro, medium containing MEM (Minimum Essential Media) (2 g/L glucose) supplemented with glutamine, gentamicin and 5% […] is changed to the cells. On day 6 in vitro, the unwanted cell division is inhibited by adding cytosine arabinoside (10 μM final concentration) for 24 h. The cultures refed with MEM (2 g/L glucose) supplemented with glutamine, gentamicin and 5% HS-HI before experiments. Aß1-42 Exposure The wells in good shape are chosen for experiment on day 10 in vitro. Test compounds are diluted in MEM (2 g/L glucose) supplemented with L-glutamine, gentamicin, and 5% HS-HI. […] The absorbance at 340 nm is measured immediately using a 3-min kinetic measurement protocol in Multiskan FC ELISA reader (Thermo, Finland). The change in absorbance/min is determined, which is directly proportional to the released LDH (=cell death).

APPSwDI/NOS2−/− mice = experiment: Contextual Fear Conditioning test in APPSwDI/NOS2−/− transgenic mice; format: in vivo; details: once-a-day p.o., after two months of treatment, vs vehicle, FIG. 2
Procedure: -/- are double transgenic mice which display […] spatial memory, neuronal loss and neurofibrillary tangle like pathology. […] Treatment was continued for 2.5 months. After two months of treatment, starting at the age of 14.5 months the mice were subjected to Contextual Fear Conditioning (CFC) test. The test was performed as follows Training consisted of placing a mouse in a chamber, bright house light on, and allowing exploration for 2 min. Afterward an auditory cue (1700 Hz, 80 dB, conditioned stimulus (CS)) was presented for 15 s. A 2 s foot shock (1.5 mA; unconditioned stimulus (US)) was administered for the final 2 s of the CS. This procedure was repeated, and the mouse was removed from the chamber 30 s later. Twenty hours (±30 min) after the training, the mouse was returned to the same chamber in which the training occurred (memory for context), and freezing behavior was recorded by a computerized camera tracking system. The automated Freeze Frame system, which digitized the video signal at 4 Hz and compared movement of the mouse frame by frame, was used to score the amount of freezing. At the end of the 5 min context test, the mouse was returned to its home cage. Freezing scores for each subject were expressed as a percentage for memory for context.

GFAP = GFAP immunohistochemistry in icv streptozotocin-induced Alzheimer's disease model; format: in vivo; details: icv-STZ mice, oral once daily day 0 to day 14; betahistine 30 and 100 mg/kg, donepezil 0.5 mg/kg; compared with Vehicle group; FIG. 3
Procedure: (§1) Seven-week-old male C57BL/6 mice were obtained from Japan SLC, (Japan). The animals were maintained in a SPF facility under controlled conditions of temperature (23±2° C.), humidity (45±10%), lighting (12-hour artificial light and dark cycles; light from 8:00 to 20:00) and air exchange. On day 0 and day 2, 60 mice were anesthetized with pentobarbital sodium (Kyoritsu Seiyalu, Japan) and intracerebroventricularly (icy) administered two doses of streptozotocin (STZ, Sigma-Aldrich, USA) in saline at a dose of 3 mg/kg. The icv-STZ-induced Alzheimer's disease model mice were divided into 6 groups of 10 mice based on their body weight on the day before the start of the treatment.

MAP2 = MAP2 mRNA expression by quantitative RT-PCR in icv streptozotocin-induced Alzheimer's disease model; format: in vivo, mice; details: for Expression levels of MAP2 gene (Mean ± SD): relative mRNA normalized to GAPDH, Vehicle 1.0 ± 0.4
Procedure: as §1
Expression levels of MAP2, a cytoskeletal modulator that has been implicated in the pathogenesis of Alzheimer's disease and a member of MAP2/tau family, was measured by quantitative RT-PCR. Total RNA was extracted from brain samples using RNAiso (Takara Bio, Japan) according to the manufacturer's instructions. One μg of RNA was reverse-transcribed using a reaction mixture containing 4.4 mM MgCl2 (F. Hoffmann-La Roche, Switzerland), 40 U RNase inhibitor (Toyobo, Japan), 0.5 mM dNTP (Promega, USA), 6.28 μM random hexamer (Promega), 5× first strand buffer (Promega), 10 mM dithiothreitol (Invitrogen, USA) and 200 U MMLV-RT (Invitrogen) in a final volume of 20 μL. The reaction was carried out for 1 hour at 37° C., followed by 5 minutes at 99° C. Real-time PCR was performed using real-time PCR DICE and SYBR premix Taq (Takara Bio). To calculate the relative mRNA expression level, the expression of each gene was normalized to that of reference gene GAPDH.

histamine H3 receptors = histamine H3 receptors (Homo sapiens, UniProt Q9Y5N1); details: general statement in description; cited from earlier work
histamine H3 receptors, sequence (Q9Y5N1 whole entry): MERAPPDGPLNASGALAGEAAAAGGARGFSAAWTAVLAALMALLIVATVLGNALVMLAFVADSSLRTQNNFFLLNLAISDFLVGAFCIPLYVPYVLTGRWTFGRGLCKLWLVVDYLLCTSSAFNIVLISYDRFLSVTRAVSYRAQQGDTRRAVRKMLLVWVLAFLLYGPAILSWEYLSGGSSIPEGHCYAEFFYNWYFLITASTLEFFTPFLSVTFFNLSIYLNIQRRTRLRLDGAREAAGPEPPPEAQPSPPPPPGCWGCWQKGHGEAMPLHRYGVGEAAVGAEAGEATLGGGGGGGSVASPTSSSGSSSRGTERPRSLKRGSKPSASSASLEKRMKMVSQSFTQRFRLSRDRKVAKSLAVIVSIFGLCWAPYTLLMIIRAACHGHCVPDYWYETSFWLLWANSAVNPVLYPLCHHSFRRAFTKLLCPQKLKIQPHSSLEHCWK

Compound	protective effect against Aβ 1-42-induced cell death [1]	Freezing score (memory for context) (APPSwDI/NOS2−/− mice)	GFAP-positive area (GFAP)	Expression levels of MAP2 gene (Mean ± SD) (MAP2; Betahistine high dose (100 mg/kg p.o. once daily day 0-14), n = 10)	Expression levels of MAP2 gene (Mean ± SD) (MAP2; Betahistine low dose (30 mg/kg p.o. once daily day 0-14), n = 10)	MAP2 mRNA expression (in words) (MAP2; icv-STZ mice brain, oral once daily day 0 to day 14, normalized to GAPDH)	affinity as an antagonist for histamine H3 receptors (histamine H3 receptors)	Expression levels of MAP2 gene (Mean ± SD) (MAP2; Donepezil 0.5 mg/kg p.o. once daily day 0-14, n = 10)
CNCCc1ccccn1 [Betahistine]	profound protective effect	improved freezing score	significant decreases	0.7 ± 0.2	0.7 ± 0.2	significant down regulation	very strong affinity	
COc1cc2c(cc1OC)C(=O)C(CC1CCN(Cc3ccccc3)CC1)C2 (stereo not drawn) [Donepezil, donepezil]			significant decreases					0.7 ± 0.2
